Results on six molecules are retold here after US4904664A, “Benzene compounds having two pyridazinone substituents” (Smith Kline & French Laboratories Limited, priority 1985, dated 1990).

One assay concerns ventricular strips. As to the kind of experiment: Cardiac stimulant activity in vitro, force of contraction of guinea pig ventricular strips. In kind it is cell-based, Guinea pigs. The settings on record: Cavia porcellus, read-out: EC50 (50% increase in the force of contraction of the ventricular strips); concentration in bathing fluid. As to the method: The compounds of formula (I) and their pharmaceutically acceptable salts are tested for cardiac stimulant activity following a procedure based on that of S. C. Verma and J. H. McNeill (J. Pharm. & Exp. Therapeutics, 200, 352-362 (1977)). Guinea pigs (500-700 g) of either sex are sacrificed and the hearts are quickly removed and transferred to a dissecting dish containing oxygenated bathing fluid. While in the bathing medium, the right ventricle is cut into two strips. The strips are each suspended in a 50 ml bath containing Krebs Henseleit solution at 37° C., and the bath is bubbled with 95% oxygen and 5% carbon dioxide. The ventricular strips are electrically stimulated at a frequency of 1.0 Hz, at double the threshold voltage. A resting tension of 1.0 g is applied to the strips and the tension is kept constant by readjustment during an equilibration period of 60 minutes. The bathing fluid is frequently changed during this period. When a steady base line is obtained, a compound under test is added to the bathing fluid and a cumulative concentration response curve is plotted.

The subject of assay [1] is left ventricular contractility (left ventricular dp/dt max). Put plainly: Cardiac stimulant activity in vivo, left ventricular dp/dt max in anaesthetised cats. The settings on record: Felis catus, iv, read-out: ED50 (dose to increase left ventricular dp/dt max by 50%), i.v., pretreated with pempidine and propranolol.
The next assay deals with PDE (Peak III). As to the kind of experiment: Inhibition of phosphodiesterase PDE (Peak III) from cat heart. Conditions: 1 μM cyclic AMP.
The subject of assay [2] is hindquarters perfusion pressure. As to the kind of experiment: Vasodilator activity in autoperfused anaesthetised cat hind quarters. The settings on record: Felis catus, iv, constant blood flow, i.v., read-out: ED15 (i.v. dose to decrease hindquarters perfusion pressure by 15%). In kind it is in vivo. As to the method:
The compounds of the Examples were tested in autoperfused anaesthetised cat hind quarters (autoperfused at constant blood flow). The i.v. dose to decrease hindquarters perfusion pressure (vasodilatation) by 15% is given as the ED15.

Assay [3] concerns histamine-induced bronchoconstriction. Put plainly: Bronchodilatation in vivo, histamine-induced bronchoconstriction in anaesthetised guinea-pigs. Further details: species or system Dunkin Hartley strain. The settings on record: n=1. As for the experimental part:
Male guinea-pigs of the Dunkin Hartley strain (500-600 g) were anaesthetised with Sagatal (pentobarbital sodium) (60 mg/kg i.p.). Airway resistance was measured using a modification of the classical Konzett-Rossler technique (Versuchsanordnung zu Untersuchungen an der Bronchialmuskulatur. Naunyn-Schmiedebergs Arch. Exp. Path. Pharmak., 195: pp 71-74, (1940)). A dose of histamine which gave approximately 150% increase in airway resistance was selected for i.v. administration. Bolus doses of the compound of Example 6 were administered (i.v.) on minute before the histamine challenge (n=1).

Description for PDE (Peak III): The enzyme was assayed by incubation at 37° for 4-30 min in 50 mM Tris, 5 mM MgCl2, pH 7.5 with [3-H]cyclic nucleotide (4×10^5 disintegrations min^-1) and [14-C] nucleotide 5' monophosphate (3×10^3 disintegrations min^-1). […] The reaction mixture was diluted with 0.5 ml 100 mM HEPES (N-2-Hydroxyethylpiperazine-N'-2-ethanesulfonic acid), 100 mM NaCl, pH 8.5, and applied to the column. […] The recovery of product as judged by [14-C] recovery was approximately 80%. All assays were linear with time of incubation and concentration of enzyme over the range used in these experiments.

Broadly, the IC50 is the concentration needed to halve the response being measured. The low end stands for greater potency, the high end for weaker potency. Consider `O=c1ccc(-c2ccc(-c3ccc(=O)[nH]n3)cc2)n[nH]1` [Example 1, 1,4-Bis(6-oxo-1,6-dihydropyridazin-3-yl)benzene], for which, in the assay on ventricular strips, the EC50 came out at 900 nM. Besides, in assay [1], the ED50 came out at 0.04 µmol/kg. On PDE (Peak III), this molecule yielded an IC50 of 330 nM.
Consider `O=C1CCC(c2ccc(C3=NNC(=O)CC3)cc2)=NN1` [Example 2, 1,4-Bis(6-oxo-1,4,5,6-tetrahydropyridazin-3-yl)benzene], for which, in assay [1], the ED50 is 0.55 µmol/kg. Also, in assay [2], the ED15 turned out to be 0.12 µmol/kg. This molecule yielded an IC50 at PDE (Peak III) of 640 nM.
In the same order, the values of `CC1CC(=O)NN=C1c1ccc(C2=NNC(=O)CC2C)cc1` (stereo not drawn) [Example 3, 1,4-Bis(4-methyl-6-oxo-1,4,5,6-tetrahydropyridazin-3-yl)benzene] are 0.06 µmol/kg, 0.04 µmol/kg and 110 nM.
As for `Cc1cc(=O)[nH]nc1-c1ccc(-c2n[nH]c(=O)cc2C)cc1` [Example 4, 1,4-Bis(4-methyl-6-oxo-1,6-dihydropyridazin-3-yl)benzene], the midpoint of inhibition on PDE (Peak III), the IC50, lay at 37500 nM.
Regarding `O=c1ccc(-c2cccc(-c3ccc(=O)[nH]n3)c2)n[nH]1` [Example 5, 1,3-Bis(6-oxo-1,6-dihydropyridazin-3-yl)benzene], the ED50 in assay [1] is 3.16 µmol/kg. Also, the ED15 in assay [2] came to 3.23 µmol/kg. The molecule also gave an IC50 against PDE (Peak III) of 3900 nM.
As for `CC1CC(=O)NN=C1c1ccc(-c2ccc(=O)[nH]n2)cc1` (stereo not drawn) [Example 6, 6-[4-(4-Methyl-6-oxo-1,4,5,6-tetrahydropyridazin-3-yl)phenyl]pyridazin-3(2H)-one], the ED50 in assay [1] was 0.02 µmol/kg; in assay [3] (Cavia porcellus, iv, read-out: ED50 (dose which would reduce the histamine bronchoconstriction by 50%), i.v. one minute before histamine challenge, calculated by interpolation), 0.033 µmol/kg. The ED15 in assay [2] was 0.01 µmol/kg. Besides, the “effect on histamine-induced bronchoconstriction” value in assay [3] (i.v., in words) is “reduced the histamine-induced bronchoconstriction”. Further, the IC50 at PDE (Peak III) is 70 nM.
